Laboratory results taken from patent US20190375708A1 (VenatoRx Pharmaceuticals, Inc., priority 2018, published 2019).

How the values were obtained:
[1] = In vitro cytotoxicity assay (MTT cell viability) in HepG2 cells; format: cell-based, human; conditions: human
Summary of the method: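 Using MTT conversion as the viability measure, HepG2 cells were incubated with compounds for 7 days (30 μM to 1.0 nM). Absorbance at 492 nm was normalized to vehicle and fitted to give CC50.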

[2] = test system: HBV replication in HepAD38 cells; assay: Anti-HBV replication assay in HepAD38 cells (QPCR of extracellular HBV DNA); format: cell-based, HBV (genotype D, serotype ayw); conditions: Hepatitis B virus, 168 h, 7 days incubation, extracellular HBV DNA by QPCR, read-out: Anti-HBV EC50
Summary of the method: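 Tet-off HepAD38, 7-day compound exposure ([…], 1 log10 steps, DMSO vehicle), 37 °C. Extracellular HBV DNA by QPCR, copies/mL via standard curve, % inhibition vs vehicle, EC50 by 4-parameter regression. Entecavir as positive control.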

Row | Structure (SMILES) | CC50 at 7 days [1] | EC50 [2]
1 | CNC(=O)[C@@H](NC(=O)C(=O)c1c(C)c(C(=O)Nc2ccc(F)c(C)c2)c(C)n1C)C1CC1 [Example 123, (S)-5-(2-((1-cyclopropyl-2-(methylamino)-2-oxoethyl)amino)-2-oxoacetyl)-N-(4-fluoro-3-methylphenyl)-1,2,4-trimethyl-1H-pyrrole-3-carboxamide] | > 30 µM | 0.05 to 0.499 µM
2 | Cc1cc(NC(=O)c2c(C)c(C(=O)C(=O)Nc3nc(CO)cs3)n(C)c2C)ccc1F [Example 308, N-(4-fluoro-3-methylphenyl)-5-(2-((4-(hydroxymethyl)thiazol-2-yl)amino)-2-oxoacetyl)-1,2,4-trimethyl-1H-pyrrole-3-carboxamide] | > 30 µM | 0.5 to 1 µM
3 | CC(C)(C)NC(=O)C(=O)c1cc(C(=O)Nc2ccc(F)c(C#N)c2)c2n1CCOC2 [Example 582, 6-(2-(tert-butylamino)-2-oxoacetyl)-N-(3-cyano-4-fluorophenyl)-3,4-dihydro-1H-pyrrolo[2,1-c][1,4]oxazine-8-carboxamide] | > 30 µM | > 1 µM
4 | Nc1ncc(CNC(=O)C(=O)c2c(Cl)c(C(=O)Nc3ccc(F)c(F)c3)c3n2CCC3)s1 [Example 569, 5-(2-(((2-aminothiazol-5-yl)methyl)amino)-2-oxoacetyl)-6-chloro-N-(3,4-difluorophenyl)-2,3-dihydro-1H-pyrrolizine-7-carboxamide] | > 30 µM | < 0.05 µM
5 | Cc1c(C(=O)Nc2ccc(F)c(F)c2)c2n(c1C(=O)C(=O)NC1(CO)CCC1)CCCC2 [Example 460, N-(3,4-difluorophenyl)-3-(2-((1-(hydroxymethyl)cyclobutyl)amino)-2-oxoacetyl)-2-methyl-5,6,7,8-tetrahydroindoline-1-carboxamide] | 5 to 30 µM | < 0.05 µM
6 | Cc1noc([C@H](C)NC(=O)C(=O)c2c(Cl)c(C(=O)Nc3cnc(F)c(C)c3)c3n2CCC3)n1 [Example 736, (S)-6-chloro-N-(6-luoro-5-methylpyridin-3-yl)-5-(2-((1-(3-methyl-1,2,4-oxadiazol-5-yl)ethyl)amino)-2-oxoacetyl)-2,3-dihydro-1H-pyrrolizine-7-carboxamide] | 5 to 30 µM | < 0.05 µM
7 | Cc1cc(NC(=O)c2c(C)c(C(=O)C(=O)N[C@@H](C)C(C)(C)C)n(C)c2C)ccc1F [Example 88, (S)-5-(2-((3,3-dimethylbutan-2-yl)amino)-2-oxoacetyl)-N-(4-fluoro-3-methylphenyl)-1,2,4-trimethyl-1H-pyrrole-3-carboxamide] | 5 to 30 µM | < 0.05 µM
8 | Cc1cc(NC(=O)c2c(C)c(C(=O)C(=O)N[C@@H]3CCNC3=O)n(C)c2C)ccc1F [Example 672, (R)-N-(4-fluoro-3-methylphenyl)-1,2,4-trimethyl-5-(2-oxo-2-((2-oxopyrrolidin-3-yl)amino)acetyl)-1H-pyrole-3-carboxamide] | > 30 µM | < 0.05 µM
9 | Cc1cc(Cl)cc(NC(=O)c2c(C)c(C(=O)C(=O)N[C@H]3CNC(=O)C3)n(C)c2C)c1 [Example 684, (R)-N-(3-chloro-5-methylphenyl)-1,2,4-trimethyl-5-(2-oxo-2-((5-oxopyrrolidin-3-yl)amino)acetyl)-1H-pyrrole-3-carboxamide] | > 30 µM | < 0.05 µM
10 | Cc1noc([C@@H](C)NC(=O)C(=O)c2cc(C(=O)Nc3ccc(F)c(C)c3)c3n2CCCC3)n1 [Example 431, (R)-N-(4-fluoro-3-methylphenyl)-3-(2-((1-(3-methyl-1,2,4-oxadiazol-5-yl)ethyl)amino)-2-oxoacetyl)-5,6,7,8-tetrahydroindolizine-1-carboxamide] | > 30 µM | 0.05 to 0.499 µM
11 | CCn1c(C)c(C(=O)Nc2ccc(F)c(C)c2)c(C)c1C(=O)C(=O)N[C@H]1CC[C@@H](O)CC1 [Example 284, 1-ethyl-N-(4-fluoro-3-methylphenyl)-5-(2-(((1s,4s)-4-hydroxycyclohexyl)amino)-2-oxoacetyl)-2,4-dimethyl-1H-pyrrole-3-carboxamide] | > 30 µM | < 0.05 µM
12 | Cc1cc(NC(=O)c2c(C)c(C(=O)C(=O)N[C@@H](C(N)=O)C3CCCCC3)n(C)c2C)ccc1F [Example 102, (R)-5-(2-((2-amino-1-cyclohexyl-2-oxoethyl)amino)-2-oxoacetyl)-N-(4-fluoro-3-methylphenyl)-1,2,4-trimethyl-1H-pyrrole-3-carboxamide] | 0.5 to 4.99 µM | < 0.05 µM
13 | Cc1c(C(=O)Nc2ccc(F)c(Cl)c2)c(C)n(C)c1C(=O)C(=O)NC(C)(C)CO [Example 189, N-(3-chloro-4-fluorophenyl)-5-(2-((1-hydroxy-2-methylpropan-2-yl)amino)-2-oxoacetyl)-1,2,4-trimethyl-1H-pyrrole-3-carboxamide] | > 30 µM | < 0.05 µM
14 | Cc1cc(NC(=O)c2c(C)c(C(=O)C(=O)N3CCC(F)(F)C3)n(C)c2C)cnc1F [Example 192, 5-(2-(3,3-difluoropyrrolidin-1-yl)-2-oxoacetyl)-N-(6-fluoro-5-methylpyridin-3-yl)-1,2,4-trimethyl-1H-pyrrole-3-carboxamide] | > 30 µM | 0.5 to 1 µM
15 | Cc1cc(NC(=O)c2c(C)c(C(=O)C(=O)N[C@@H](C(=O)O)C(C)(C)C)n(C)c2C)ccc1F [Example 31, (R)-2-(2-(4-((4-fluoro-3-methylphenyl)carbamoyl)-1,3,5-trimethyl-1H-pyrrol-2-yl)-2-oxoacetamido)-3,3-dimethylbutanoic acid] | > 30 µM | 0.05 to 0.499 µM
16 | CC(=O)N[C@H]1C[C@H](NC(=O)C(=O)c2c(C)c(C(=O)Nc3ccc(F)c(C)c3)c(C)n2C)C1 [Example 670, 5-(2-(((1r,3r)-3-acetamidocyclobutyl)amino)-2-oxoacetyl)-N-(4-fluoro-3-methylphenyl)-1,2,4-trimethyl-1H-pyrrole-3-carboxamide] | > 30 µM | < 0.05 µM
17 | Cc1cc(NC(=O)c2c(C)c(C(=O)C(=O)NC3C4CC5CC(C4)CC3C5)n(C)c2C)ccc1F (stereo not shown) [Example 17, 5-(2-(((1r,3r)-adamantan-2-yl)amino)-2-oxoacetyl)-N-(4-fluoro-3-methylphenyl)-1,2,4-trimethyl-1H-pyrrole-3-carboxamide] | 0.5 to 4.99 µM | < 0.05 µM
18 | Cc1cc(NC(=O)c2c(C)c(C(=O)C(=O)NC3(C)CCN(C(=O)c4ccnn4C)CC3)n(C)c2C)ccc1F [Example 692, N-(4-fluoro-3-methylphenyl)-1,2,4-trimethyl-5-(2-((4-methyl-1-(1-methyl-1H-pyrazole-5-carbonyl)piperidin-4-yl)amino)-2-oxoacetyl)-1H-pyrrole-3-carboxamide] | > 30 µM | < 0.05 µM
19 | Cc1csc(C2(NC(=O)C(=O)c3c(C)c(C(=O)Nc4ccc(F)c(C)c4)c(C)n3C)CCCC2)n1 [Example 635, N-(4-fluoro-3-methylphenyl)-1,2,4-trimetthyl-5-(2-((1-(4-methylthiazol-2-yl)cyclopentyl)amino)-2-oxoacetyl)-1H-pyrrole-3-carboxamide] | > 30 µM | < 0.05 µM
20 | Cc1cc(NC(=O)c2c(C)c(C(=O)C(=O)N[C@H]3CCC[C@H]3O)n3c2CCCC3)ccc1F [Example 440, N-(4-fluoro-3-methylphenyl)-3-(2-(((1S,2R)-2-hydroxycyclopentyl)amino)-2-oxoacetyl)-2-methyl-5,6,7,8-tetrahydroindolizine-1-carboxamide] | 5 to 30 µM | 0.05 to 0.499 µM
21 | CNC(=O)[C@@H](NC(=O)C(=O)c1c(C)c(C(=O)Nc2ccc(F)c(C)c2)c(C)n1C)C(C)C [Example 108, (S)-N-(4-fluoro-3-methylphenyl)-1,2,4-trimethyl-5-(2-((3-methyl-1-(methylamino)-1-oxobutan-2-yl)amino)-2-oxoacetyl)-1H-pyrrole-3-carboxamide] | 0.5 to 4.99 µM | < 0.05 µM
22 | Cc1cc(NC(=O)c2c(C)c(C(=O)C(=O)N[C@H](CO)C(=O)O)n(C)c2C)ccc1F [Example 33, (2-(4-((4-fluoro-3-methylphenyl)carbamoyl)-1,3,5-trimethyl-1H-pyrrol-2-yl)-2-oxoacetyl)-D-serine] | > 30 µM | > 1 µM
23 | CC[C@H](C)NC(=O)C(=O)c1c(Cl)c(C(=O)Nc2cnc(F)c(C)c2)c2n1CCC2 [Example 733, (S)-5-(2-(sec-butylamino)-2-oxoacetyl)-6-chloro-N-(6-fluoro-5-methylpyridin-3-yl)-2,3-dihydro-1H-pyrrolizine-7-carboxamide] | 5 to 30 µM | < 0.05 µM
24 | Cc1cc(NC(=O)c2cc(C(=O)C(=O)N[C@H](CO)[C@@H](C)O)n3c2CCCC3)ccc1F [Example 433, 3-(2-(((2R,3R)-1,3-dihydroxybutan-2-yl)amino)-2-oxoacetyl)-N-(4-fluoro-3-methylphenyl)-5,6,7,8-tetrahydroindolizine-1-carboxamide] | > 30 µM | 0.5 to 1 µM
25 | CC(C)(C)NC(=O)C(=O)c1cc(C(=O)Nc2ccc(F)c(F)c2)c2n1CCCC2 [Example 398, 3-(2-(tert-butylamino)-2-oxoacetyl)-N-(3,4-difluorophenyl)-5,6,7,8-tetrahydroindolizine-1-carboxamide] | > 30 µM | 0.05 to 0.499 µM
26 | Cc1cc(NC(=O)c2c(C)c(C(=O)C(=O)N[C@H]3CC[C@](C)(O)CC3)n(C)c2C)ccc1F [Example 213, N-(4-fluoro-3-methylphenyl)-5-(2-(((1r,4r)-4-hydroxy-4-methylcyclohexyl)amino)-2-oxoacetyl)-1,2,4-trimethyl-1H-pyrrole-3-carboxamide] | > 30 µM | < 0.05 µM
